One experiment concerns the target LRRK2 (G2019S) (Homo sapiens, UniProt Q5S007, G2019S). Briefly: LRRK2 G2019S enzyme inhibition, ADP-Glo kinase assay. It counts as biochemical. On the set-up: purchased SignalChem L10-12GG. The note with it: ATP 25 μM. In short, it runs like this:
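Purified human LRRK2 G2019S (16 ng) with 25 μM ATP and 0.2 μg substrate, 2 h at 25° C. in Tris-HCl pH 7.4, MgCl2, BSA, DTT buffer; compounds at 12 final concentrations, 50 μM down to 0.000001024 μM. ADP-Glo luminescence versus solvent control gave IC50.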

In another experiment the test system is MDA-MB-231 cell line. Briefly: Inhibition of proliferation of MDA-MB-231 cancer cells (Cell Titer-Glo). It counts as cell-based. Particulars: Homo sapiens, 72 hours. Here is the method: (§1) To evaluate an inhibitory effect on the proliferation of cancer cells, each of an MDA-MB-231 cell line (Korean Cell Line Bank #30026) and an MDA-MB-468 cell line as triple-negative breast cancer cell lines, and SHP-77 (ATCC #CRL-2195) as a small-cell lung cancer cell line was cultured in DMEM (HyClone #SH30243) or an RPMI medium (HyClone #SH3027.01) to analyze a cell growth rate. More specifically, a cell line was plated on a 96-well flat bottom plate (Corning #3903) at a density of 2,000 cells/100 μL per well, and then treated with 11 concentrations of the Example compound, a solution of which was diluted 3-fold so that a final concentration of the compound was 10.000000, 3.333333, 1.111111, 0.370370, 0.123457, 0.041152, 0.013717, 0.004572, 0.001524, 0.000508, and 0.000169 μM. After 72 hours, each of the culture media was treated with 100 μL of Cell Titer-Glo (Promega G7573), and then cultured at room temperature for 10 minutes. Then, a degree of luminescence was measured using a microplate reader. A GI50 value was calculated from the measured degree of luminescence using Prism (Version 8.2 GraphPad) software.

Another experiment deals with T1, human GST-CLK1 (Homo sapiens, UniProt P49759).
T1 construct: purified human GST-CLK1 (129-end, SignalChem) enzyme; purchased SignalChem
T1 sequence (P49759 129-484 limits assumed): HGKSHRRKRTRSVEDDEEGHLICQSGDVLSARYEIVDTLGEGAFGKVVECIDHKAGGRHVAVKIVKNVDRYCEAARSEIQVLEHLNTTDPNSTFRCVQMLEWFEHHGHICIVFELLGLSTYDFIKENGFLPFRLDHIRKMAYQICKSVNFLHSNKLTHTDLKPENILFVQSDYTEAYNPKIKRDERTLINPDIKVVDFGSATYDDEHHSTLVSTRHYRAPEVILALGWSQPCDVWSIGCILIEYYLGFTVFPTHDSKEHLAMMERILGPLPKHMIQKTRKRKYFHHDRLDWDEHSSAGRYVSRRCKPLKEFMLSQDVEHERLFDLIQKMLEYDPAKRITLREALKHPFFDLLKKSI
Briefly: GST-CLK1 enzyme inhibition, ADP-Glo kinase assay. It is filed as biochemical. Particulars: ATP 10 μM, GST-CLK1 129-end. Summed up:
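Human GST-CLK1 (129-end, 3 ng) reacted with substrate and 10 μM ATP for 1 h at 25° C in 40 mM Tris-HCl pH 7.4, 20 mM MgCl2, 0.5 mg/mL BSA, 50 μM DTT. ADP-Glo luminescence was normalised to solvent control; IC50 (nM) from 3 data sets.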

The target of another experiment is T2, human GST-DYRK1A (Homo sapiens, UniProt Q13627).
T2 construct: purified human GST-DYRK1A (full length, Thermo Scientifics) enzyme; purchased Thermo Scientifics
The experiment in a line: GST-DYRK1A enzyme inhibition, ADP-Glo kinase assay. It counts as biochemical. The note with it: ATP 10 μM, GST-DYRK1A full length, read-out: DYRK1 IC50. Summed up:
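Full-length human GST-DYRK1A (10 ng) with 10 μM ATP and specific substrate in 40 mM Tris-HCl pH 7.4, 20 mM MgCl2, 0.5 mg/mL BSA, 50 μM DTT, 1 h at 25 °C. ADP formation read by ADP-Glo luminescence relative to solvent control; IC50 from three data sets.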

The next experiment deals with MDA-MB-468 cell line. Briefly: Inhibition of proliferation of MDA-MB-468 cancer cells (Cell Titer-Glo). It counts as cell-based. The note with it: Homo sapiens, MDA-MB-468, 72 hours. Here is the method:
as §1

In the next experiment the target is LRRK2 (Homo sapiens, UniProt Q5S007). The experiment in a line: LRRK2 enzyme inhibition, ADP-Glo kinase assay. It counts as biochemical. On the set-up: purchased Invitrogen PR8604B. The note with it: ATP 10 μM. In short, it runs like this:
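Purified human LRRK2 (25 ng) with 10 μM ATP and 0.2 μg substrate in 40 mM Tris-HCl pH 7.4, 20 mM MgCl2, 0.5 mg/mL BSA, 50 μM DTT, 2 h at 25° C. ADP-Glo luminescence; 12-point compound series from 50 μM final; IC50 relative to solvent control.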

The subject of a further experiment is human DYRK1A and tau. Briefly: Inhibition of tau phosphorylation, ClariCELL Kinase Cell-Based Assay, HEK 293 cells expressing human DYRK1A and tau. Here is the method: An inhibitory effect on tau phosphorylation was determined using the ClariCELL™ Kinase Cell-Based Assay service (commercially available from CamaBio USA, Inc.). Human embryonic kidney (HEK 293) cells temporarily expressing human DYRK1A and tau were exposed to the compound, and then lysed to release cell proteins. In this case, the released tau was captured on a plate, and a degree of phosphorylation was quantified by ELISA using a tau phosphorylation-specific antibody.

This passage reports IC50, GI50 and inhibition results from patent publication US20230066011A1, “PYRROLOPYRIMIDINE DERIVATIVE, AND PHARMACEUTICAL COMPOSITION FOR PREVENTING OR TREATING PROTEIN KINASE-RELATED DISEASE COMPRISING SAME AS ACTIVE INGREDIENT” (VORONOI CO., LTD., priority 2019, published 2023).

Each structure is given as a SMILES string.

LRRK2, sequence (Q5S007 970-2527 limits assumed): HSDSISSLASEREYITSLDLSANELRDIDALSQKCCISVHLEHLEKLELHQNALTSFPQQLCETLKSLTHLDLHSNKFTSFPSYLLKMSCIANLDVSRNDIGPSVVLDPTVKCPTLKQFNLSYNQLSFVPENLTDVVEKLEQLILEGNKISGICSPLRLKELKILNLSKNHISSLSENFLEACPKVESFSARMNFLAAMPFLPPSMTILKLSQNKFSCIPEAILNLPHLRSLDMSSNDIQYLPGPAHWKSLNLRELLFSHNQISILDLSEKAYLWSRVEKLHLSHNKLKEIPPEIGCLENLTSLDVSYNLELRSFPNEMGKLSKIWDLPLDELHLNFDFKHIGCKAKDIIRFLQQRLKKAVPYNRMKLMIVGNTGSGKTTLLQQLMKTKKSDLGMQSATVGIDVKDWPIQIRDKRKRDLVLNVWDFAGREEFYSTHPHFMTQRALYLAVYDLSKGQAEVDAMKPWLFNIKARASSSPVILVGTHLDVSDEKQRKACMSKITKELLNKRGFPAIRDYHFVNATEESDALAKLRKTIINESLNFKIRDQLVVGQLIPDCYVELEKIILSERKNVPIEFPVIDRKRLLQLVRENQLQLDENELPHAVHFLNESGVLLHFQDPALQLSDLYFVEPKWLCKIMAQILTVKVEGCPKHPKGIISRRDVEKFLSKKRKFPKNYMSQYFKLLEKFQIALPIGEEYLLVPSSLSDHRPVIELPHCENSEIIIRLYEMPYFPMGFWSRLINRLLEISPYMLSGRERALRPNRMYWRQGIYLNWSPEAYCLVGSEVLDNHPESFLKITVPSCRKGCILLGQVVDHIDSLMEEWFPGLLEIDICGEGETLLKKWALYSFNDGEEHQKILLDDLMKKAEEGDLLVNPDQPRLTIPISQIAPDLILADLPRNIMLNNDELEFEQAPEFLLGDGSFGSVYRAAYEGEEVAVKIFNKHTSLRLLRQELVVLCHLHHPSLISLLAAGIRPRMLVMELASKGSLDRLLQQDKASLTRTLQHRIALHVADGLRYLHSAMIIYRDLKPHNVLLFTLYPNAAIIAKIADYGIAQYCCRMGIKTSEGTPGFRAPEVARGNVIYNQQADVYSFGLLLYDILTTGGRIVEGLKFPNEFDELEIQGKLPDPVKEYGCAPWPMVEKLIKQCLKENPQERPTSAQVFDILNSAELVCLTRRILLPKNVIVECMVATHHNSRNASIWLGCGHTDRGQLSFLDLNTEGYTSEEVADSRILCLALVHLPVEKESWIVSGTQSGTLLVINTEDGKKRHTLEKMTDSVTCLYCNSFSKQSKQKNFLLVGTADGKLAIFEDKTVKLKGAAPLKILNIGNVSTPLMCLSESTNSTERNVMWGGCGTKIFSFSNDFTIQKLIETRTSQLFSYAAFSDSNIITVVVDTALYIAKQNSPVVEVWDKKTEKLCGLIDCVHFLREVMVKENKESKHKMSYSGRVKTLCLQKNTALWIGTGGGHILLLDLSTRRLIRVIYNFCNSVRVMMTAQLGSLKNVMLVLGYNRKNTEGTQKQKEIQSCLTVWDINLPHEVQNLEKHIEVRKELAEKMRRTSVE
LRRK2 (G2019S), sequence (Q5S007 970-2527 G2019S limits assumed): as the sequence (Q5S007 970-2527 limits assumed) above, with G1050S counted along it

Turning to `COc1cc(S(=O)(=O)N2CCC(N3CCOCC3)CC2)ccc1Nc1nc(NC(C)C)c2c(C#N)c[nH]c2n1` [Example 85, 4-(isopropylamino)-2-((2-methoxy-4-((4-morpholinopiperidin-1-yl)sulfonyl)phenyl)amino)-7H-pyrrolo[2,3-d]pyrimidine-5-carbonitrile], the IC50 at LRRK2 (G2019S) was below 100 nM; at human GST-CLK1 it was 101 to 300 nM; at human GST-DYRK1A, 301 to 1000 nM. The GI50 in the experiment with MDA-MB-231 cell line and with MDA-MB-468 cell line was below 50 nM throughout.
As for `COc1cc(P(C)(C)=O)ccc1Nc1nc(NC2CCCCC2)c2c(C#N)c[nH]c2n1` [Example 117, 4-(cyclohexylamino)-2-((4-(dimethylphosphoryl)-2-methoxyphenyl)amino)-7H-pyrrolo[2,3-d]pyrimidine-5-carbonitrile], the GI50 with MDA-MB-231 cell line and in the experiment on MDA-MB-468 cell line was below 50 nM in each case. On human GST-CLK1, this compound returned an IC50 of 301 to 1000 nM.
For `COCC(C)(C)Nc1nc(Nc2ccc(S(=O)(=O)N3CCC(N4CCOCC4)CC3)cc2OC)nc2[nH]cc(C(F)(F)F)c12` [Example 176, N^4-(1-methoxy-2-methylpropan-2-yl)-N^2-(2-methoxy-4-((4-morpholinopiperidin-1-yl)sulfonyl)phenyl)-5-(trifluoromethyl)-7H-pyrrolo[2,3-d]pyrimidine-2,4-diamine], the IC50 on LRRK2 (G2019S), against human GST-CLK1, on human GST-DYRK1A and on LRRK2 was 301 to 1000 nM throughout. In the experiment with MDA-MB-231 cell line, this compound registered a GI50 of 101 to 300 nM.
On to `O=C(c1ccc(Nc2nc(NC3CCCC3)c3cc[nH]c3n2)c2c1CCO2)N1CCC(N2CCOCC2)CC1` [Example 241, (7-((4-(cyclopentylamino)-7H-pyrrolo[2,3-d]pyrimidin-2-yl)amino)-2,3-dihydrobenzofuran-4-yl)(4-morpholinopiperidin-1-yl)methanone], for which the IC50 on human GST-CLK1 and on human GST-DYRK1A was 301 to 1000 nM throughout. In addition, the GI50 with MDA-MB-468 cell line is 301 to 1000 nM.
On to `COc1cc(P2(=O)CCN(C3CC3)CC2)ccc1Nc1nc(NC2CCCC2)c2cc[nH]c2n1` [Example 242, 4-(4-((4-(cyclopentylamino)-7H-pyrrolo[2,3-d]pyrimidin-2-yl)amino)-3-methoxyphenyl)-1-cyclopropyl-1,4-azaphosphinane 4-oxide], for which the IC50 against human GST-CLK1 and at human GST-DYRK1A was 301 to 1000 nM throughout. The compound further displayed a GI50 with MDA-MB-468 cell line of 301 to 1000 nM.
As to `COc1cc(P2(=O)CCN(C3CCOCC3)CC2)ccc1Nc1nc(NC2CCCC2)c2cc[nH]c2n1` [Example 243, 4-(4-((4-(cyclopentylamino)-7H-pyrrolo[2,3-d]pyrimidin-2-yl)amino)-3-methoxyphenyl)-1-(tetrahydro-2H-pyran-4-yl)-1,4-azaphosphinane 4-oxide], the IC50 on human GST-CLK1 and on human GST-DYRK1A was 301 to 1000 nM each time. In the experiment on MDA-MB-468 cell line, this compound had a GI50 of 301 to 1000 nM.
As to `O=C(c1ccc(Nc2nc(NC3CCCCC3)c3cc[nH]c3n2)c2c1CCO2)N1CCOCC1` [Example 244, (7-((4-(cyclohexylamino)-7H-pyrrolo[2,3-d]pyrimidin-2-yl)amino)-2,3-dihydrobenzofuran-4-yl)(morpholino)methanone], the IC50 was 301 to 1000 nM at human GST-CLK1, 301 to 1000 nM at human GST-DYRK1A and below 100 nM on LRRK2. This compound registered a GI50 in the experiment on MDA-MB-468 cell line below 50 nM.
Consider `O=C(c1ccc(Nc2nc(NC3CCCCC3)c3cc[nH]c3n2)c2c1CCO2)N1CCC(N2CCOCC2)CC1` [Example 245, (7-((4-(cyclohexylamino)-7H-pyrrolo[2,3-d]pyrimidin-2-yl)amino)-2,3-dihydrobenzofuran-4-yl)(4-morpholinopiperidin-1-yl)methanone], for which the IC50 against human GST-CLK1 and on human GST-DYRK1A was 301 to 1000 nM throughout. Further, in the experiment on MDA-MB-468 cell line, the GI50 fell in the range of 51 to 100 nM.
For the compound `COc1cc(S(=O)(=O)N2CCOCC2)ccc1Nc1nc(NC(C)C)c2c(C#N)c[nH]c2n1` [Example 250, 4-(isopropylamino)-2-((2-methoxy-4-(morpholinosulfonyl)phenyl)amino)-7H-pyrrolo[2,3-d]pyrimidine-5-carbonitrile], the IC50 on human GST-CLK1 is 301 to 1000 nM; at human GST-DYRK1A, 301 to 1000 nM; on LRRK2 it was below 100 nM. Besides, the GI50 in the experiment with MDA-MB-468 cell line was below 50 nM.
For `CC[C@H](C)Nc1nc(Nc2ccc(S(=O)(=O)N3CCC(N4CCOCC4)CC3)cc2OC)nc2[nH]cc(C#N)c12` [Example 263, (S)-4-(sec-butylamino)-2-((2-methoxy-4-((4-morpholinopiperidin-1-yl)sulfonyl)phenyl)amino)-7H-pyrrolo[2,3-d]pyrimidine-5-carbonitrile], the results for the 50% growth inhibitory concentration (GI50) with MDA-MB-231 cell line and in the experiment with MDA-MB-468 cell line were below 50 nM and 51 to 100 nM, respectively. In addition, the IC50 at human GST-CLK1 and on human GST-DYRK1A was 301 to 1000 nM each time.
As to `N#Cc1c[nH]c2nc(Nc3ccc(C(=O)N4CCOCC4)c4c3OCC4)nc(NC3CCCC3)c12` [Example 319, 4-(cyclo-pentylamino)-2-((4-(morpholine-4-carbonyl)-2,3-dihydrobenzo-furan-7-yl)amino)-7H-pyrrolo[2,3-d]pyrimidine-5-carbonitrile], the IC50 against human GST-CLK1 is below 100 nM; at human GST-DYRK1A, 301 to 1000 nM; at LRRK2, below 100 nM. The GI50 with MDA-MB-468 cell line is below 50 nM.
As for `N#Cc1c[nH]c2nc(Nc3ccc(C(=O)N4CCC(N5CCOCC5)CC4)c4c3OCC4)nc(NC3CCCC3)c12` [Example 320, 4-(cyclo-pentylamino)-2-((4-(4-morpholino-piperidine-1-carbonyl)-2,3-dihydro-benzofuran-7-yl)amino)-7H-pyrrolo[2,3-d]pyrimidine-5-carbonitrile], the IC50 at human GST-CLK1 and on human GST-DYRK1A was below 100 nM throughout. This compound also showed a GI50 in the experiment on MDA-MB-468 cell line of 301 to 1000 nM.
For the compound `N#Cc1c[nH]c2nc(Nc3ccc(C(=O)N4CCOCC4)c4c3OCC4)nc(NC3CCCCC3)c12` [Example 321, 4-(cyclo-hexylamino)-2-((4-(morpholine-4-carbonyl)-2,3-dihydrobenzo-furan-7-yl)amino)-7H-pyrrolo[2,3-d]pyrimidine-5-carbonitrile], the IC50 on human GST-CLK1 lay in the range of 101 to 300 nM; at human GST-DYRK1A it was 301 to 1000 nM; on LRRK2, 101 to 300 nM. Besides, the GI50 in the experiment with MDA-MB-468 cell line is below 50 nM.
`N#Cc1c[nH]c2nc(Nc3ccc(C(=O)N4CCC(N5CCOCC5)CC4)c4c3OCC4)nc(NC3CCCCC3)c12` [Example 322, 4-(cyclo-hexylamino)-2-((4-(4-morpholino-piperidine-1-carbonyl)-2,3-dihydro-benzofuran-7-yl)amino)-7H-pyrrolo[2,3-d]pyrimidine-5-carbonitirle]: the inhibition at 1 µM in the experiment with human DYRK1A and tau (HEK293, read-out: % inhibition at 1 uM, tau phosphorylation, compound 1 uM) amounted to 64.3%. Moreover, in the experiment on human DYRK1A and tau (HEK293, tau phosphorylation, compound 0.25 uM), the inhibition at 0.25 µM is -10.5%. Further, in the experiment on human DYRK1A and tau (HEK293, tau phosphorylation, compound 0.5 uM), the inhibition at 0.5 µM amounted to 34.2%. The IC50 at LRRK2 (G2019S), against human GST-CLK1, on human GST-DYRK1A and on LRRK2 was below 100 nM each time.
For the compound `COCCNc1nc(Nc2ccc(P3(=O)CCN(C4CC4)CC3)cc2OC)nc2[nH]cc(C(F)(F)F)c12` [Example 412, 1-cyclopropyl-4-(3-methoxy-4-((4-((2-methoxyethyl)amino)-5-(trifluoromethyl)-7H-pyrrolo[2,3-d]pyrimidin-2-yl)amino)phenyl)-1,4-azaphosphinane 4-oxide], the IC50 against human GST-CLK1, at human GST-DYRK1A and at LRRK2 was below 100 nM throughout. Besides, in the experiment on MDA-MB-468 cell line, the GI50 lay within 301 to 1000 nM.
